Measurements taken from patent US20110158930A1, “METHOD FOR TREATMENT OF IRRITABLE BOWEL SYNDROME” (ASTELLAS PHARMA INC., priority 2008, published 2011).

Tests used:
[1] = tested on: 5-HT induced diarrhea in mice; experiment: 5-HT induced diarrhea in mice; format: in vivo, mouse
Method: (§1) Ramosetron hydrochloride, polycarbophil calcium (Astellas Pharma, Inc.) and 5-HT creatinine sulfate (Wako Pure Chemical Industries Ltd.) were used. Ramosetron was dissolved and diluted with distilled water. Polycarbophil was prepared by decalcification of polycarbophil calcium according to a reported method (Yamada et al., Iyakuhin Kenkyu 1997; 28: 23-32), and suspended and diluted with distilled water. In this experiment, ramosetron was used and expressed as its hydrochloride form. All the test substances were orally administered in a dose of 12 mL/kg. In combined administration of ramosetron and polycarbophil, a mixed solution of the two drugs was prepared and this was orally administered.
Each test substance was orally administered to male ICR mice (9-week age, Clea Japan, Inc.), and after 2 hours, 5-HT (3 mg/kg) was intraperitoneally administered (Miyata et al., J. Pharmacol. Exp. Ther. 1992; 261: 297-303). The mice were put individually in separate cages, and the condition of the stool excreted within 3 hours after the 5-HT administration was observed. The occurrence of diarrhea was defined in case where the excreted stool condition was loose stool (wet pasty stool) or watery stool (amorphous muddy stool). […]
All the results were statistically analyzed using Statistical Analysis System ver. […] In this experiment, all the data were expressed as two significant figures. In the investigation using the diarrheal models, the incidence of diarrhea was calculated in each group, then the significance was evaluated according to the Fisher's exact test, and if desired, the significance level was corrected according to the Bonferroni's method for consideration of multiplicity (the case of P<0.05 or P<0.05/3 was given significance). In the experiments of spontaneous defecation, the mean value of total stool weight±SEM was calculated in every group, and the significance was evaluated according to Student's t-test (between two groups) or Dunnett's multiple comparison test (between multiple groups) (the case of P<0.05 was given significance).

[2] = tested on: restraint stress induced diarrhea in rats; experiment: Restraint stress induced diarrhea in rats; format: in vivo, rat
Method: Ramosetron hydrochloride, polycarbophil calcium (Astellas Pharma, Inc.) and 5-HT creatinine sulfate (Wako Pure Chemical Industries Ltd.) were used. Ramosetron was dissolved and diluted with distilled water. Polycarbophil was prepared by decalcification of polycarbophil calcium according to a reported method (Yamada et al., Iyakuhin Kenkyu 1997; 28: 23-32), and suspended and diluted with distilled water. In this experiment, ramosetron was used and expressed as its hydrochloride form. All the test substances were orally administered in a dose of 12 mL/kg. In combined administration of ramosetron and polycarbophil, a mixed solution of the two drugs was prepared and this was orally administered. Male Wistar rats (13 to 14-week age, Japan SLC Inc.) that had been fasted overnight were stressed by confinement in a restraint stress cage (KN-468, Natsume Seisakusho Co., Ltd.) (Hirata et al., Neurogastroenterol. Motil. 2008; 20: 557-565). The condition of the stool excreted within 3 hours after the initiation of the restraint stress was observed, and the occurrence of diarrhea was defined in case where the excreted stool condition was wet, amorphous and muddy stool. […] All the results were statistically analyzed using Statistical Analysis System ver. […] In this experiment, all the data were expressed as two significant figures. In the investigation using the diarrheal models, the incidence of diarrhea was calculated in each group, then the significance was evaluated according to the Fisher's exact test, and if desired, the significance level was corrected according to the Bonferroni's method for consideration of multiplicity (the case of P<0.05 or P<0.05/3 was given significance). In the experiments of spontaneous defecation, the mean value of total stool weight±SEM was calculated in every group, and the significance was evaluated according to Student's t-test (between two groups) or Dunnett's multiple comparison test (between multiple groups) (the case of P<0.05 was given significance).

[3] = tested on: spontaneous defecation in mice; experiment: Spontaneous defecation in mice (total stool weight); format: in vivo, mouse; conditions: ddy mice
Method: as §1
In this experiment, male ddy mice (Nippon SLC, 5-week age) were used. Spontaneous defecation was measured individually in separate cages with a wire flooring under free drinking and free feeding condition. […]
The effect of single administration of ramosetron or polycarbophil alone was investigated with the following group composition, and the total stool weight in 2 hours after administration of each test substance was measured (n=10 in every group): Distilled water administration group (control group); ramosetron administration group (10, 30 and 100 μg/kg); polycarbophil administration group (100, 300 and 1,000 mg/kg). […]
All the results were statistically analyzed using Statistical Analysis System ver. […]

Cn1cc(C(=O)[C@@H]2CCc3nc[nH]c3C2)c2ccccc21 [ramosetron, (−)-(R)-5-[(1-methyl-1H-indol-3-yl)carbonyl]-4,5,6,7-tetrahydro-1H-benzimidazole]
incidence of diarrhea ([1]; ramosetron 30 μg/kg p.o. alone, 2 hours before 5-HT 3 mg/kg i.p., stool within 3 hours, ICR mice, n=24): 58%
effect on 5-HT induced diarrhea ([1]; ramosetron 10 to 100 μg/kg p.o. alone, n=12): dose-dependently inhibited
significance of inhibition of 5-HT induced diarrhea vs distilled water ([1]; ramosetron 30 and 100 μg/kg p.o. alone, n=12, Fisher's exact test): significant inhibitory effect
incidence of diarrhea ([2]; ramosetron 0.3 μg/kg p.o. alone, 4 hours before restraint stress, stool within 3 hours, Wistar rats, n=24): 46%
effect on restraint stress induced diarrhea ([2]; ramosetron 0.1 to 1 μg/kg p.o. alone, n=12): dose-dependently inhibited
significance of inhibition of restraint stress induced diarrhea vs distilled water ([2]; ramosetron 0.3 and 1 μg/kg p.o. alone, n=12, Fisher's exact test): significant inhibitory effect
total stool weight in 2 hours vs distilled water group ([3]; ramosetron 100 μg/kg p.o. single administration alone, n=10, Dunnett's test): significant reduction in the total stool weight
effect on spontaneous defecation (total stool weight in 2 hours) ([3]; ramosetron 10 to 100 μg/kg p.o. single administration alone, n=10): dose-dependently inhibited spontaneous defecation
